# What was measured:
# [1] = Octanol-to-water partitioning; details: for partitioning behavior in octanol-water two-phase system: 1-octanol / citric acid buffer pH 5 (Fig. 2f), in words; for Log P (partition coefficient): 24 h, pH 5
# Procedure: Samples from the supernatant were analyzed by HPLC to determine water solubility. The partitioning of compounds between octanol and water was determined by adding 2.5 nmol of each substance to an equal volume (200 µL) mixture of octanol and 0.25 M citric acid, pH 5 and shaking for 24 h to permit equilibration between the two phases. The tubes were then centrifuged at 20,000 × g for 30 min at 20 °C and 20 μL samples from each phase were analyzed by HPLC. The partition coefficient is defined by the following equation, where “C” is the concentration of compound in each phase. A partition coefficient equal to 0 means that the compound equally distributes between each phase.
# [2] = tested on: MDA-MB-468 human breast tumors; experiment: In vivo anticancer activity, subcutaneous human breast cancer xenograft; design: species or system NOD/SCID mice; details: four weekly injections
# Procedure: MDA-MB468 human breast cancer cells (10^7 cells in 100 µL PBS) were injected subcutaneously in twelve to sixteen-week old female NOD/SCID immunodeficient mice. When tumors reached sizes ranging from 75 to 100 mm^3, groups of seven mice were treated at weekly intervals for four times with intravenous injections of 9AC at 5.5 µmol kg^−1 (2 mg kg^−1), 9AC-G^W at 14.5 µmol kg^−1 (10 mg kg^−1), liposomal 9AC-G^W at 14.5 µmol kg^−1 (10 mg kg^−1), or doxorubicin liposomes (Doxisome, 1.8 µmol kg^−1 equivalent to 1 mg kg^−1 and 5.5 µmol kg^−1 equivalent to 3 mg kg^−1). Tumor volumes, body weights, and survival were monitored for more than 2 months after treatments started. […] The tumor volume was calculated according to the following formula:2 TumorVolume=Length×Depth×Height/2
# [3] = parental hydrophobic drugs; cited from earlier work
# [4] = Regeneration of parental drug 9AC within tumors (tumor vs blood); assay type: in vivo, NOD/SCID mice; details: female, NOD/SCID, mouse, intravenous, printed in picture of Fig. 9b, read-out: 9AC per gram of tissue, Tumor vs Blood
# Procedure: Twelve to 16 week old female NOD/SCID immunodeficient mice were inoculated with 10^7 MDA-MB468 human breast cancer cells. When tumors reached ~100 mm^3, the mice were intravenously injected with 14.5 µmol kg^−1 (10 mg kg^−1) of liposomal 9AC-G^W (based on the drug concentration). Blood was collected in Na-heparinized hematocrit tubes from the tail vein and mice were then killed to harvest the tumor tissue. Blood samples (100 µL) were centrifuged at 2500 × g for 3 min and the plasma was collected for analysis. Tumor tissue was homogenized in 3 mL RIPA buffer (25 mM Tris-HCl pH 7.5, 150 mM NaCl, 0.1% SDS, 0.5% Na-deoxycholate, 1% Triton X-100) on a IKA Ultra-Turrax® TP 18/10 homogenizer. The amount of 9AC was determined in blood and tumor samples by HPLC and normalized to amounts per gram of tissue, according to the relationship 1 mL of whole blood = 1.06 g of weight.
# [5] = Pharmacokinetics in plasma after i.v. injection; design: species or system NOD/SCID female mice; details: female, NOD/SCID, mouse, in vivo, iv, 35 umol/kg
# Procedure: 9AC-G^W was dissolved at 10.9 µmol mL^−1 (7.5 mg mL^−1) in 25 mM phosphate buffer pH 6.5 just before use. 9AC-G^W liposomes were concentrated by successive centrifugations at 5000, 10,000, and 20,000 × g for 30 min at 4 °C. After each centrifugation, the pellet was collected and resuspended in a smaller volume of buffer. The concentration of liposomal 9AC-G^W achieved through this method before injection was 5.1 µmol mL^−1 (3.5 mg mL^−1) based on 9AC-G^W. Each preparation (free 9AC-G^W and liposomal 9AC-G^W) was injected intravenously in the tail vein of 12–16 week old NOD/SCID female mice at 35 µmol kg^−1 (25 mg kg^−1) using three mice per group. Blood samples were collected at 5 min, 30 min, 60 min, 2 h, and 3 h for free 9AC-G^W, in addition to 6, 12, 26, 48, 148 h for 9AC-G^W liposomes with Na-heparinized hematocrit tubes from the tail vein. The plasma was separated from the red blood cells by centrifugation at 2500 × g for 3 min. […] The final results are expressed as 9AC-G^W plasma concentration in µmol L^−1 (µM). Biological half-lives were determined by an exponential two phase decay curve fit on GraphPad prism (GraphPad software, Inc.).
# [6] = Stability and conversion of the lipid-soluble switch in liposomal external and internal buffers; assay type: physicochemical; details: 75 °C
# Procedure: Error bars, SD, n = 3. c Kinetics of the conversion of 9AC-G^W to lipid-soluble 9AC-G^L, d BQC-G^W to BQC-G^L and e 4MU-G^W to 4MU-G^L in acidic methanol at 62 °C. The HPLC chromatograms show samples at 0, 15, 30, and 60 min. RFU relative fluorescent units. f Partition coefficients (Log scale) between 50 mM citric acid buffer pH 5 and 1-octanol of the parental compounds compared to their respective -G^W and -G^L forms. Error bars: SD, n = 5. g Stability of 9AC-G^L in liposomal external buffer (50 mM citric acid, 250 mM sodium sulfate, pH 5) at 75 °C. Error bars: SD, n = 3. h Conversion of 9AC-G^L to 9AC-G^W in liposomal internal buffer (50 mM HEPES, 250 mM calcium acetate, pH 8.5) at 75 °C. Error bars: SD, n = 3.
# Water-soluble 9AC-G^W was obtained by incubating 50 µg 9AC-G^L in 500 µL of liposomal internal buffer at pH 8.5. After 1 h at 65 °C the reaction was analyzed by HPLC to assess the reformation of 9AC-G^W. A 20 µL sample of 9AC-G^W was then transferred to 1 mL of reaction buffer (100 mM sodium acetate, 100 ng mL^−1 bovine serum albumin, pH 4.5) containing 1 µg of purified recombinant human beta-glucuronidase[56] for 1 h at 37 °C to cleave the cue-responsive trigger and generate 9AC. Drug regeneration was also examined in a biological system where 10^5 cells (MDA-MB468, HCC36, and HCC36 anti-PEG) were seeded per well in a 96 well-plate in triplicate and incubated overnight. […]
# [7] = Water solubility (saturation, HPLC); assay type: physicochemical; details: 24 h
# [8] = in animals; no reference given; cited from earlier work
# [9] = PBS pH 7.4, after 2 hr; no reference given; cited from earlier work
# [10] = design: method as in earlier work; details: rats 50, 250, 500 mg/kg i.p. daily; dogs 50 mg/kg i.v.; ref 6 of peer review file; cited from earlier work
smiles,measurement,setting,value
"Cc1cc(=O)oc2cc(O[C@@H]3O[C@H](C(=O)O)[C@@H](O)[C@H](O)[C@H]3O)ccc12 [4MU-G^W, 4-methylumbelliferyl-β-D-glucuronide, reference compound]",partitioning behavior in octanol-water two-phase system,[1],partitioned in the aqueous phase
same,partitioning behavior in octanol-water two-phase system,[1]; listed as 4MU-G^L,slightly lipophilic behavior
"CC[C@@]1(O)C(=O)OCc2c1cc1n(c2=O)Cc2cc3c(N)cccc3nc2-1 [9AC, 9-aminocamptothecin]",effect on tumor growth compared with TBS,[2]; 5.5 µmol kg^−1 i.v.,minimal effect on tumor growth
same,water solubility,[3],< 50 µg/mL
same,Kp at 24 h,[4]; 24 h post-injection,> 30
same,Kp at 72 h,[4]; 72 h post-injection,> 12
"CCC1(O)C(=O)OCc2c1cc1n(c2=O)Cc2cc3c(NC(=O)OCc4ccc(OC5OC(C(=O)O)C(O)C(O)C5O)cc4)cccc3nc2-1 [9AC-G^W, 9-aminocamptothecin-β-D-glucuronide]",effect on tumor growth compared with TBS,[2]; 14.5 µmol kg^−1 i.v.,minimal effect on tumor growth
same,half-life,[5]; initial half-life,9.3 min
same,half-life,[5]; terminal half-life,38.6 min
same,stability in liposomal external buffer,"[6]; pH 5 (50 mM citric acid, 250 mM sodium sulfate)",stable
same,conversion in liposomal internal buffer,"[6]; pH 8.5 (50 mM HEPES, 250 mM calcium acetate)",rapidly converted to the highly water-soluble 9AC-G^W
same,"water solubility, fold greater than the parental hydrophobic drug",[7],680 fold
same,partitioning behavior in octanol-water two-phase system,[1],partitioned in the aqueous phase
same,partitioning behavior in octanol-water two-phase system,[1]; listed as 9AC-G^L,slightly lipophilic behavior
same,Log P (partition coefficient),[1],~ 1.1
"CCC1(O)C(=O)OCc2c1cc1n(c2=O)Cc2c-1nc1ccc(O)c3c1c2CCC3 (centres unmarked) [BQC, 5,6-dihydro-4H-benzo[de]quinoline-camptothecin, reference compound]","Water solubility, fold difference between Parental and -G^W Switch",[7],> 3700 ×
"CCC1(O)C(=O)OCc2c1cc1n(c2=O)Cc2c-1nc1ccc(OCc3ccc(OC4OC(C(=O)O)C(O)C(O)C4O)c([N+](=O)[O-])c3)c3c1c2CCC3 [BQC-G^W, 5,6-dihydro-4H-benzo[de]quinoline-camptothecin-β-D-glucuronide]","water solubility, fold greater than the parental hydrophobic drug",[7],3700 fold
same,partitioning behavior in octanol-water two-phase system,[1],partitioned in the aqueous phase
same,partitioning behavior in octanol-water two-phase system,[1]; listed as BQC-G^L,slightly lipophilic behavior
same,Log P (partition coefficient),[1],~ 1.3
"OCc1ccccc1 [Benzyl alcohol, benzyl alcohol]",LD50 dose,[8],greater than 1 g per kg
CC[C@@]1(O)C(=O)OCc2c1cc1n(c2=O)Cc2cc3ccccc3nc2-1 [CPT],activity remaining,[9],10%
O=C[C@H](O)[C@@H](O)[C@H](O)[C@H](O)C(=O)O [D-glucuronic acid],functional or morphological changes after one-month treatment,[10],induced neither f unctional nor
